In patent US8445477B2, “Azetidinyl diamides as monoacylglycerol lipase inhibitors” (Janssen Pharmaceutica, NV, priority 2009, dated 2013):

How the values were obtained:
[1] = tested on: CFA-induced thermal hypersensitivity of the rat hind paw; test: CFA-Induced Paw Radiant Heat Hypersensitivity; assay type: in vivo; details: 30 mg/kg p.o., HPβCD, group mean values, maximum at any time point up to 180 or 300 min
Protocol: Each rat was placed in a test chamber on a warm glass surface and allowed to acclimate for approximately 10 min. A radiant thermal stimulus (beam of light) was then focused through the glass onto the plantar surface of each hind paw in turn. The thermal stimulus was automatically shut off by a photoelectric relay when the paw was moved or when the cut-off time was reached (20 sec for radiant heat at ˜5 amps). An initial (baseline) response latency to the thermal stimulus was recorded for each animal prior to the injection of complete Freund's adjuvant (CFA). 24 h following intraplantar CFA injection, the response latency of the animal to the thermal stimulus was then re-evaluated and compared to the animal's baseline response time. […] Post-compound treatment withdrawal latencies were assessed at fixed time intervals, typically 30, 60, 120, 180, and 300 min.
The percent reversal (% R) of hypersensitivity was calculated in one of two different ways: 1) using group mean values or 2) using individual animal values. […]
Method 1. For all compounds, the % R of hypersensitivity was calculated using the mean value for groups of animals at each time point according to the following formula: % reversal=[(group treatment response−group CFA response)/(group baseline response−group CFA response)]×100 Results are given for the maximum % reversal observed for each compound at any time point tested. […]

[2] = biological target: T1, MGL in rat brain homogenate (Rattus norvegicus, UniProt Q8R431); test: 2-AG Accumulation Assay (rat brain homogenate); assay type: biochemical; details: compound 1 μM, percent vehicle = 2-AG accumulation with compound / vehicle ×100, read-out: Rat Brain 2AG % VehCntrl (%) @ 1 μM
T1 construct: one g rat brain was homogenized; from tissue; host or cells: rat brain homogenate
T1 sequence (Q8R431 1-303): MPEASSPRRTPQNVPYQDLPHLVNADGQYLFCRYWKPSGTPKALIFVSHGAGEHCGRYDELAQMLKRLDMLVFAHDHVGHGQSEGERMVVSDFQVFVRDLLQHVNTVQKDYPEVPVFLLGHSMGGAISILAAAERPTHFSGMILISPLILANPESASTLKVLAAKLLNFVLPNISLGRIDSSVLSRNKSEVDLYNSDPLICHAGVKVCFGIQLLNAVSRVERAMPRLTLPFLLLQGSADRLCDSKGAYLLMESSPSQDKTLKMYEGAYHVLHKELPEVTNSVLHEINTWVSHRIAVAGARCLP

Compound	Method 1: peak % reversal [1]	activity at 1 µM [2]
O=C(c1ccc(-c2cccc(C(F)(F)F)c2)c(Cl)c1)N1CC(N2CCN(C(=O)c3cscn3)CC2)C1 [Cpd 1102]	38%	–
O=C(c1ccc2c(ccn2-c2ncc(C(F)(F)F)cc2Cl)c1)N1CC(N2CCN(C(=O)c3nccs3)CC2)C1 [Cpd 1116]	–	828%
